Measurements from PubChem BioAssay AID1259407 (Chemical Carcinogenesis Research Information System (CCRIS), 2018).
The source made the active and inactive calls. How the calls were made is not given here.

Tested on: CCRIS mutagenicity, Ames/micronucleus/aberration tests
Experiment: CCRIS mutagenicity studies
[1] = Test System: AMES SALMONELLA TYPHIMURIUM, Strain/Indicator: TA100, Metabolic Activation: NONE, Method: STANDARD PLATE
[2] = Test System: AMES SALMONELLA TYPHIMURIUM, Strain/Indicator: TA100, Metabolic Activation: NONE, Method: PREINCUBATION

`Nc1ncnc2c1ncn2[C@H]1CC[C@@H](CO)O1` was tested, and the mutagenic call (Test System: AMES SALMONELLA TYPHIMURIUM, Strain/Indicator: TA98, Metabolic Activation: HAMSTER, LIVER, S-9, AROCLOR 1254, Method: STANDARD PLATE) was “inactive; negative”, the mutagenic call (Test System: AMES SALMONELLA TYPHIMURIUM, Strain/Indicator: TA98, Metabolic Activation: NONE, Method: STANDARD PLATE) was “inactive; negative” and the mutagenic call (Test System: AMES SALMONELLA TYPHIMURIUM, Strain/Indicator: TA98, Metabolic Activation: RAT, LIVER, S-9, AROCLOR 1254, Method: STANDARD PLATE) was “inactive; negative”. The mutagenic call (Test System: AMES SALMONELLA TYPHIMURIUM, Strain/Indicator: TA100, Metabolic Activation: HAMSTER, LIVER, S-9, AROCLOR 1254, Method: STANDARD PLATE) was “inactive; negative”, the mutagenic call [1] was “inactive; negative” and the mutagenic call (Test System: AMES SALMONELLA TYPHIMURIUM, Strain/Indicator: TA100, Metabolic Activation: RAT, LIVER, S-9, AROCLOR 1254, Method: STANDARD PLATE) was “inactive; negative”. For the same compound, the mutagenic call (Test System: AMES SALMONELLA TYPHIMURIUM, Strain/Indicator: TA1535, Metabolic Activation: HAMSTER, LIVER, S-9, AROCLOR 1254, Method: STANDARD PLATE) was “inactive; negative”, the mutagenic call (Test System: AMES SALMONELLA TYPHIMURIUM, Strain/Indicator: TA1535, Metabolic Activation: NONE, Method: STANDARD PLATE) was “inactive; negative” and the mutagenic call (Test System: AMES SALMONELLA TYPHIMURIUM, Strain/Indicator: TA1535, Metabolic Activation: RAT, LIVER, S-9, AROCLOR 1254, Method: STANDARD PLATE) was “inactive; negative”. The mutagenic call (Test System: AMES SALMONELLA TYPHIMURIUM, Strain/Indicator: TA1537, Metabolic Activation: HAMSTER, LIVER, S-9, AROCLOR 1254, Method: STANDARD PLATE) was “inactive; negative”, the mutagenic call (Test System: AMES SALMONELLA TYPHIMURIUM, Strain/Indicator: TA1537, Metabolic Activation: NONE, Method: STANDARD PLATE) was “inactive; negative” and the mutagenic call (Test System: AMES SALMONELLA TYPHIMURIUM, Strain/Indicator: TA1537, Metabolic Activation: RAT, LIVER, S-9, AROCLOR 1254, Method: STANDARD PLATE) was “inactive; negative”. For the same compound, the mutagenic call (Test System: AMES SALMONELLA TYPHIMURIUM, Strain/Indicator: TA1538, Metabolic Activation: HAMSTER, LIVER, S-9, AROCLOR 1254, Method: STANDARD PLATE) was “inactive; negative”, the mutagenic call (Test System: AMES SALMONELLA TYPHIMURIUM, Strain/Indicator: TA1538, Metabolic Activation: NONE, Method: STANDARD PLATE) was “inactive; negative” and the mutagenic call (Test System: AMES SALMONELLA TYPHIMURIUM, Strain/Indicator: TA1538, Metabolic Activation: RAT, LIVER, S-9, AROCLOR 1254, Method: STANDARD PLATE) was “inactive; negative”. For the same compound, the mutagenic call (Test System: MOUSE LYMPHOMA, Strain/Indicator: L5178Y (TK+/TK-), Metabolic Activation: NONE, Method: SUSPENSION/PLATE) was “active; positive. reevaluation of results: positive” and the mutagenic call (Test System: MOUSE LYMPHOMA, Strain/Indicator: L5178Y (TK+/TK-), Metabolic Activation: RAT, LIVER, S-9, AROCLOR 1254, Method: SUSPENSION/PLATE) was “active; positive. reevaluation of results: equivocal”.

`CN(C)c1ccc(/C=C/C=O)cc1` was tested, and the mutagenic call [2] was “inactive; negative” and the mutagenic call (Test System: AMES SALMONELLA TYPHIMURIUM, Strain/Indicator: TA100, Metabolic Activation: RAT, LIVER, S-9, AROCLOR 1254, Method: PREINCUBATION) was “inactive; negative”.

In the case of `Cc1ccccc1OP(=O)(Oc1ccccc1)Oc1ccccc1`, the mutagenic call (Test System: AMES SALMONELLA TYPHIMURIUM, Strain/Indicator: TA98, Metabolic Activation: HAMSTER, LIVER, S-9, AROCLOR 1254 (10%), Method: PREINCUBATION) is reported as “inactive; negative”, the mutagenic call (Test System: AMES SALMONELLA TYPHIMURIUM, Strain/Indicator: TA98, Metabolic Activation: NONE, Method: PREINCUBATION) is reported as “inactive; negative” and the mutagenic call (Test System: AMES SALMONELLA TYPHIMURIUM, Strain/Indicator: TA98, Metabolic Activation: RAT, LIVER, S-9, AROCLOR 1254 (10%), Method: PREINCUBATION) is reported as “inactive; negative”. The mutagenic call (Test System: AMES SALMONELLA TYPHIMURIUM, Strain/Indicator: TA100, Metabolic Activation: HAMSTER, LIVER, S-9, AROCLOR 1254 (10%), Method: PREINCUBATION) was “inactive; negative”, the mutagenic call [2] was “inactive; negative” and the mutagenic call (Test System: AMES SALMONELLA TYPHIMURIUM, Strain/Indicator: TA100, Metabolic Activation: RAT, LIVER, S-9, AROCLOR 1254 (10%), Method: PREINCUBATION) was “inactive; negative”. For the same compound, the mutagenic call (Test System: AMES SALMONELLA TYPHIMURIUM, Strain/Indicator: TA1535, Metabolic Activation: HAMSTER, LIVER, S-9, AROCLOR 1254 (10%), Method: PREINCUBATION) was “inactive; negative”, the mutagenic call (Test System: AMES SALMONELLA TYPHIMURIUM, Strain/Indicator: TA1535, Metabolic Activation: NONE, Method: PREINCUBATION) was “inactive; negative” and the mutagenic call (Test System: AMES SALMONELLA TYPHIMURIUM, Strain/Indicator: TA1535, Metabolic Activation: RAT, LIVER, S-9, AROCLOR 1254 (10%), Method: PREINCUBATION) was “inactive; negative”. For the same compound, the mutagenic call (Test System: AMES SALMONELLA TYPHIMURIUM, Strain/Indicator: TA1537, Metabolic Activation: HAMSTER, LIVER, S-9, AROCLOR 1254 (10%), Method: PREINCUBATION) was “inactive; negative”, the mutagenic call (Test System: AMES SALMONELLA TYPHIMURIUM, Strain/Indicator: TA1537, Metabolic Activation: NONE, Method: PREINCUBATION) was “inactive; negative” and the mutagenic call (Test System: AMES SALMONELLA TYPHIMURIUM, Strain/Indicator: TA1537, Metabolic Activation: RAT, LIVER, S-9, AROCLOR 1254 (10%), Method: PREINCUBATION) was “inactive; negative”.

`CN(C)N=Nc1ccc(C(=O)O)cc1` was tested, and the mutagenic call (Test System: AMES SALMONELLA TYPHIMURIUM, Strain/Indicator: G46, Metabolic Activation: NONE, Method: STANDARD PLATE) was “inactive; negative”, the mutagenic call (Test System: AMES SALMONELLA TYPHIMURIUM, Strain/Indicator: G46, Metabolic Activation: RAT, LIVER, S-9, PHENOBARBITAL, Method: STANDARD PLATE) was “active; positive” and the mutagenic call (Test System: AMES SALMONELLA TYPHIMURIUM, Strain/Indicator: TA92, Metabolic Activation: NONE, Method: STANDARD PLATE) was “active; positive”. The mutagenic call (Test System: AMES SALMONELLA TYPHIMURIUM, Strain/Indicator: TA92, Metabolic Activation: RAT, LIVER, S-9, PHENOBARBITAL, Method: PREINCUBATION) was “inactive; negative”, the mutagenic call (Test System: AMES SALMONELLA TYPHIMURIUM, Strain/Indicator: TA92, Metabolic Activation: RAT, LIVER, S-9, PHENOBARBITAL, Method: STANDARD PLATE) was “inactive; negative” and the mutagenic call [1] was “inactive; negative”. For the same compound, the mutagenic call (Test System: AMES SALMONELLA TYPHIMURIUM, Strain/Indicator: TA100, Metabolic Activation: RAT, LIVER, S-9, PHENOBARBITAL, Method: STANDARD PLATE) was “inactive; negative”, the mutagenic call (Test System: E. COLI, Strain/Indicator: TM6, Metabolic Activation: NONE, Method: STANDARD PLATE) was “active; positive” and the mutagenic call (Test System: E. COLI, Strain/Indicator: TM6, Metabolic Activation: RAT, LIVER, S-9 PHENOBARBITAL, Method: STANDARD PLATE) was “active; positive”. For the same compound, the mutagenic call (Test System: E. COLI, Strain/Indicator: TM9, Metabolic Activation: NONE, Method: STANDARD PLATE) was “active; positive”, the mutagenic call (Test System: E. COLI, Strain/Indicator: TM9, Metabolic Activation: RAT, LIVER, S-9 PHENOBARBITAL, Method: STANDARD PLATE) was “active; positive” and the mutagenic call (Test System: E. COLI, Strain/Indicator: WP2, Metabolic Activation: NONE, Method: STANDARD PLATE) was “active; positive”. For the same compound, the mutagenic call (Test System: E. COLI, Strain/Indicator: WP2, Metabolic Activation: RAT, LIVER, S-9 PHENOBARBITAL, Method: STANDARD PLATE) was “active; positive”, the mutagenic call (Test System: E. COLI, Strain/Indicator: WP2 UVRA, Metabolic Activation: NONE, Method: STANDARD PLATE) was “active; positive” and the mutagenic call (Test System: E. COLI, Strain/Indicator: WP2 UVRA, Metabolic Activation: RAT, LIVER, S-9 PHENOBARBITAL, Method: STANDARD PLATE) was “active; positive”.
